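Briefly, cells in 96-well plates were exposed to five compound concentrations for 48 h, and endpoints were estimated by linear interpolation. GI50 = concentration required for 50% inhibition of growth.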 Active and inactive are the calls of the source. Cut-off read from the data, not from the text of the source: active = GI50 up to about 1.1 µM and inactive = higher.
Assays:
Assay in all cases: inhibition of tumour cell growth, NCI panel, 48 h
K562 = tested on: K562
SW-620 = tested on: SW-620
COLO 205 = tested on: COLO 205
SK-MEL-2 = tested on: SK-MEL-2
HL-60 = tested on: HL-60
HCT-116 = tested on: HCT-116
KM12 = tested on: KM12
MCF7 = tested on: MCF7
Malme-3M = tested on: Malme-3M
HCC 2998 = tested on: HCC 2998
MOLT-4 = tested on: MOLT-4
OVCAR-3 = tested on: OVCAR-3
M14 = tested on: M14
A498 = tested on: A498
CCRF-CEM = tested on: CCRF-CEM
UACC-62 = tested on: UACC-62
Hs-578T = tested on: Hs-578T
SF-295 = tested on: SF-295
MDA-MB-231 = tested on: MDA-MB-231
NCI-H460 = tested on: NCI-H460

Measured: GI50

Cc1cccc2c1NC(=O)/C2=N\Nc1ccccc1[N+](=O)[O-]
inactive: K562 17.5 µM | SW-620 9.82 µM | COLO 205 30.4 µM | SK-MEL-2 16.7 µM | HL-60 78.5 µM | HCT-116 6.82 µM | KM12 6.93 µM | MCF7 4.6 µM | Malme-3M 9.64 µM | HCC 2998 7.11 µM | MOLT-4 21.2 µM | OVCAR-3 8.13 µM | M14 19.4 µM | A498 19.3 µM | CCRF-CEM 6.3 µM | UACC-62 14.5 µM | Hs-578T 4.85 µM | SF-295 4.24 µM | MDA-MB-231 2.58 µM | NCI-H460 6.9 µM

C[C@]12C=CC(=O)C=C1CC[C@@H]1[C@@H]2C(=O)C[C@@]2(C)[C@H]1CC[C@]2(O)C(=O)CO [PREDNISONE]
inactive: K562 > 100 µM | SW-620 > 100 µM | COLO 205 > 100 µM | SK-MEL-2 > 100 µM | HL-60 > 100 µM | HCT-116 59.8 µM | KM12 > 100 µM | MCF7 > 100 µM | Malme-3M > 100 µM | HCC 2998 > 100 µM | MOLT-4 > 100 µM | OVCAR-3 > 100 µM | M14 > 100 µM | A498 > 100 µM | CCRF-CEM > 100 µM | UACC-62 > 100 µM | Hs-578T > 100 µM | SF-295 > 100 µM | MDA-MB-231 > 100 µM | NCI-H460 > 100 µM

From ChEMBL document CHEMBL1201862, “PubChem BioAssay data set” (2004)
